pEC50: −log10 of the molar value.
Key:
Type in all cases: functional
[1] = Ratio of ED50 of taxol to ED50 from tubulin binding assay
[2] = target: T1, Tubulin (Bos taurus) (UniProt Q6B856+Q862L2+Q862F3); assay: Concentration to stimulate the assembly of tubulin into microtubules.
[3] = system: B16; assay: Cytotoxicity against B16 melanoma cell line.; settings: Mus musculus, read-out: ED50 (the source's name)
[4] = Ratio of ED50 of taxol to ED50 from cytotoxicity against B16 melanoma cell lines
[5] = system: B16; assay: Cytotoxicity against B16 melanoma cell line.62% inhibition at 42 uM.; settings: Mus musculus, read-out: ED50 (the source's name)
[6] = target: T1, Tubulin (Bos taurus); assay: Concentration to stimulate the assembly of tubulin into microtubules at a dose of […]
[7] = system: B16; assay: Cytotoxicity against B16 melanoma cell line.40% inhibition at 1 uM; settings: Mus musculus, read-out: ED50 (the source's name)

SMILES	Ratio [1]	ED50 [2] [nM]	pEC50 [3]	Ratio [4]	pEC50 [5]	ED50 [6] [nM]	pEC50 [7]
CC(=O)O[C@H]1C(=O)[C@@]2(C)[C@H]([C@H](OC(=O)c3ccccc3)[C@]3(O)C[C@H](OC(=O)[C@H](O)[C@@H](NC(=O)c4ccc(Cl)cc4)c4ccccc4)C(C)=C1C3(C)C)[C@]1(OC(C)=O)CO[C@@H]1C[C@@H]2O	2.4	1700	7.37	1.5			
CC(=O)O[C@H]1C(=O)[C@@]2(C)[C@H]([C@H](OC(=O)c3ccccc3)[C@]3(O)C[C@H](OC(=O)[C@H](O)[C@@H](NC(=O)c4ccccc4)c4ccc(Cl)cc4)C(C)=C1C3(C)C)[C@]1(OC(C)=O)CO[C@@H]1C[C@@H]2O	1.9	1300	7.21	2.2			
O=C(N[C@@H](c1ccccc1)[C@@H](O)C(=O)O)c1ccccc1 (relative stereo)	> 14			>360	< 5.00	> 10000	
CC(=O)O[C@H]1C(=O)[C@@]2(C)[C@H]([C@H](OC(=O)c3ccccc3)[C@]3(O)C[C@H](O)C(C)=C1C3(C)C)[C@]1(OC(C)=O)CO[C@@H]1C[C@@H]2O [BACCATIN III]	> 14			>36		> 10000	< 6.00
CC(=O)O[C@H]1C(=O)[C@@]2(C)[C@H]([C@H](OC(=O)c3ccccc3)[C@]3(O)C[C@H](OC(=O)[C@H](O)[C@@H](NC(=O)c4ccccc4)c4ccccc4)C(C)=C1C3(C)C)[C@]1(OC(C)=O)CO[C@@H]1C[C@@H]2O [PACLITAXEL]	1	700	7.55	1			
